Calls of active or inactive are those of the source. No rule for the calls is given here.
target: Ubiquitin-conjugating enzyme E2 N (Homo sapiens) (UniProt P61088); assay: UBE2N binders by NMR, biophysical, purified protein (AID 1552); details: NMR binding to purified UBE2N
Sequence (P61088 whole entry, looked up): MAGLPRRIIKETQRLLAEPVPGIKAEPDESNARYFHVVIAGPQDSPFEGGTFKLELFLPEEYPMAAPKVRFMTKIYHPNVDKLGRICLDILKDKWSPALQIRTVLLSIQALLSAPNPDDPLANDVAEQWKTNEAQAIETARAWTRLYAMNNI

**Q.** Which Kd does the source give for `CN(C)C(=O)c1ccccc1-c1ccccc1` here?
**A.** > 4 mM (inactive)

**Q.** `C[N+](C)(C)CC(O)CC(=O)O` (configuration not stated) was tested. Which Kd did it give?
**A.** > 4 mM (inactive)

**Q.** How did the Kd turn out when `Cc1csc2nc(N)nn12` was run?
**A.** > 4 mM (inactive)

**Q.** How did the Kd turn out when `CC1NC(C(=O)O)Cc2c1[nH]c1ccccc21` (configuration not stated) was run?
**A.** > 4 mM (inactive)

**Q.** With `O=C(Nc1ccc2c(c1)OCO2)c1ccc(=O)[nH]n1` as the molecule, how does the Kd read?
**A.** > 4 mM (inactive)

**Q.** How did the Kd turn out when `CC(=O)Nc1ccc(CN2CCOCC2)cc1` was run?
**A.** > 4 mM (inactive)

**Q.** With `COC(=O)[C@@H]1C(O)CC[C@H]2CN3CCc4c([nH]c5ccccc45)[C@@H]3C[C@@H]21` (some centres not stated) as the molecule, how does the Kd read?
**A.** > 4 mM (inactive)

**Q.** `COc1ccc(C(C)=O)c(OC)c1` was tested. Which Kd did it give?
**A.** > 4 mM (inactive)

**Q.** `COC(=O)c1nc(-c2ccccc2)oc1N(C)C` was tested. Which Kd did it give?
**A.** > 4 mM (inactive)

**Q.** `COc1nc(C)ccc1-c1noc(-c2ccncc2)n1` was tested. Which Kd did it give?
**A.** > 4 mM (inactive)

**Q.** For `CC(=O)Nc1cc(C(N)=O)cc(C(N)=O)c1`, which Kd is on record?
**A.** > 4 mM (inactive)

**Q.** For `O=C(Nc1nnc(C(F)(F)F)s1)c1cccnc1`, which Kd is on record?
**A.** > 4 mM (inactive)

**Q.** For `O=C1C=C(Nc2ccccc2O)c2ccccc2C1=O`, which Kd is on record?
**A.** > 4 mM (inactive)

**Q.** How did the Kd turn out when `CC1(C)Cn2c(nnc2-c2ccccc2)S1` was run?
**A.** > 4 mM (inactive)

**Q.** Which Kd does the source give for `COc1cc(O)c2c(=O)cc(-c3ccc(OC)c(-c4c(O)cc(O)c5c(=O)cc(-c6ccc(O)cc6)oc45)c3)oc2c1` here?
**A.** > 4 mM (inactive)

**Q.** `NC(=O)c1ccc2c(c1)OCO2` was tested. Which Kd did it give?
**A.** > 4 mM (inactive)

**Q.** How did the Kd turn out when `COC(=O)c1cccc(C(F)(F)F)c1` was run?
**A.** > 4 mM (inactive)

**Q.** With `c1ccc(-n2ncc3c(NCc4ccco4)ncnc32)cc1` as the molecule, how does the Kd read?
**A.** > 4 mM (inactive)

**Q.** With `O=C(O[C@@H]1Cc2c(O)cc(O)cc2O[C@@H]1c1ccc(O)c(O)c1)c1cc(O)c(O)c(O)c1` as the molecule, how does the Kd read?
**A.** > 4 mM (inactive)

**Q.** For `CCn1cnc2scc(-c3ccccc3)c2c1=O`, which Kd is on record?
**A.** > 4 mM (inactive)

**Q.** `Cc1[nH]c2ccccc2c(=O)c1CO` was tested. Which Kd did it give?
**A.** > 4 mM (inactive)

**Q.** For `Cn1c(SCC(N)=O)nc2ccccc2c1=O`, which Kd is on record?
**A.** > 4 mM (inactive)

**Q.** How did the Kd turn out when `CCCS(=O)(=O)N1CCN(c2ccccc2F)CC1` was run?
**A.** > 4 mM (inactive)

**Q.** Which Kd does the source give for `COCCn1c(SC)nc2c1c(=O)[nH]c(=O)n2C` here?
**A.** > 4 mM (inactive)

**Q.** With `Cc1noc(C)c1C(=O)Nc1ccccc1-c1ccccc1` as the molecule, how does the Kd read?
**A.** > 4 mM (inactive)

**Q.** `Cc1cc(O)cc(=O)n1CCCC(=O)O` was tested. Which Kd did it give?
**A.** > 4 mM (inactive)

**Q.** How did the Kd turn out when `CN1C(=O)c2ccc(N3CCCC3)cc2C1=O` was run?
**A.** > 4 mM (inactive)

**Q.** `C=C1CCC2C(CC2(C)C)C(=O)CCC1O` (configuration not stated) was tested. Which Kd did it give?
**A.** > 4 mM (inactive)

**Q.** With `CCSc1nc(=S)n(CC)c(C)c1C(C)=O` as the molecule, how does the Kd read?
**A.** > 4 mM (inactive)

**Q.** Which Kd does the source give for `Nn1c(CN2CCCCC2)nc2ccccc2c1=O` here?
**A.** > 4 mM (inactive)

**Q.** With `Cc1nc2ccccc2c(=O)[nH]1` as the molecule, how does the Kd read?
**A.** > 4 mM (inactive)

**Q.** For `CC(=O)Nc1ccc2c(c1)CCC2=O`, which Kd is on record?
**A.** > 4 mM (inactive)

**Q.** `CC1(O)CC2C(CC1O)C2(C)C` (configuration not stated) was tested. Which Kd did it give?
**A.** > 4 mM (inactive)

**Q.** `COC(=O)Cc1cc(=O)n(-c2ccccc2)[nH]1` was tested. Which Kd did it give?
**A.** > 4 mM (inactive)

**Q.** `CNc1nnc(CSc2nc(C)cc(C)n2)s1` was tested. Which Kd did it give?
**A.** > 4 mM (inactive)

**Q.** `CN1CCN(c2cc(=O)n(C)c(=O)[nH]2)CC1` was tested. Which Kd did it give?
**A.** > 4 mM (inactive)

**Q.** For `O=C(O)c1cccc2nsnc12`, which Kd is on record?
**A.** > 4 mM (inactive)

**Q.** `CC(=O)N1CCC(NC2CCCCCC2)CC1` was tested. Which Kd did it give?
**A.** > 4 mM (inactive)

**Q.** How did the Kd turn out when `NC(=S)NC1CCS(=O)(=O)C1` (configuration not stated) was run?
**A.** > 4 mM (inactive)

**Q.** `Cc1nn(-c2ccccc2)c(Cl)c1C(N)=O` was tested. Which Kd did it give?
**A.** > 4 mM (inactive)

**Q.** How did the Kd turn out when `Cc1cc(C(=O)Nc2ccccn2)no1` was run?
**A.** > 4 mM (inactive)

**Q.** `CNC(=S)Nc1ncn(Cc2cccc(F)c2)n1` was tested. Which Kd did it give?
**A.** > 4 mM (inactive)

**Q.** Which Kd does the source give for `OCC(O)C(O)C(O)CO` (configuration not stated) here?
**A.** > 4 mM (inactive)

**Q.** How did the Kd turn out when `O=C(O)c1ccc2nccnc2c1` was run?
**A.** > 4 mM (inactive)

**Q.** Which Kd does the source give for `Cn1nc(C(=O)N2CCOCC2)c2ccccc2c1=O` here?
**A.** > 4 mM (inactive)

**Q.** With `O=c1cccc2n1C[C@H]1CNCC2C1` as the molecule, how does the Kd read?
**A.** > 4 mM (inactive)

**Q.** For `Cn1c(=O)n(C)c2nc([N+](=O)[O-])c(Cl)cc21`, which Kd is on record?
**A.** > 4 mM (inactive)

**Q.** `O=C1c2ccccc2C(=O)N1Cc1ccco1` was tested. Which Kd did it give?
**A.** > 4 mM (inactive)

**Q.** Which Kd does the source give for `O=C1CN2C(=N1)N(Cc1ccccc1)c1ccccc12` here?
**A.** > 4 mM (inactive)

**Q.** How did the Kd turn out when `CCOC(=O)C1C(=O)C2CCN1CC2` (configuration not stated) was run?
**A.** > 4 mM (inactive)

**Q.** For `CCC(CCC(C)[C@H]1CCC2C3CC=C4C[C@@H](O)CC[C@]4(C)C3CC[C@@]21C)C(C)C` (some centres not stated), which Kd is on record?
**A.** > 4 mM (inactive)

**Q.** How did the Kd turn out when `CCOC(=O)c1c(C)[nH]c2ccc(O)cc12` was run?
**A.** > 4 mM (inactive)

**Q.** Which Kd does the source give for `COc1ccc(CN2CCC(O)CC2)c(O)c1` here?
**A.** > 4 mM (inactive)

**Q.** `O=C(CN1C(=O)c2cccc3cccc(c23)C1=O)NO` was tested. Which Kd did it give?
**A.** > 4 mM (inactive)

**Q.** With `O=C(Nc1nnc(-c2ccco2)o1)C1=COCCO1` as the molecule, how does the Kd read?
**A.** > 4 mM (inactive)

**Q.** `O=C(Nc1ccc(N2CCCC2=O)cc1)c1cccc(F)c1` was tested. Which Kd did it give?
**A.** > 4 mM (inactive)

**Q.** Which Kd does the source give for `CC(=O)Nc1ccc(NC(C)=O)cc1` here?
**A.** > 4 mM (inactive)

**Q.** `Cc1cccc(NC(=O)Nc2cc(C)on2)c1` was tested. Which Kd did it give?
**A.** > 4 mM (inactive)

**Q.** For `COc1nc(N2CCOCC2)nc(N)c1[N+](=O)[O-]`, which Kd is on record?
**A.** > 4 mM (inactive)

**Q.** Which Kd does the source give for `COc1cc(OC)c2c(=O)c(OC)c(-c3ccc(OC)c(OC)c3)oc2c1` here?
**A.** > 4 mM (inactive)

**Q.** `O=C1CCCN1c1ccc(S(=O)O)cc1` was tested. Which Kd did it give?
**A.** > 4 mM (inactive)

**Q.** `Nc1ncnc2c1ncn2CCOc1ccccc1` was tested. Which Kd did it give?
**A.** > 4 mM (inactive)

**Q.** `O=C(O)c1cc(O)c(O)c(O)c1` was tested. Which Kd did it give?
**A.** > 4 mM (inactive)

**Q.** Which Kd does the source give for `Nc1ccc(NC(=O)c2ccco2)c(Cl)c1` here?
**A.** > 4 mM (inactive)

**Q.** For `C=CCNC(=O)c1ccc(Cl)cc1Cl`, which Kd is on record?
**A.** > 4 mM (inactive)

**Q.** How did the Kd turn out when `COc1ccc(/C=N/n2cn[nH]c2=S)cc1` was run?
**A.** > 4 mM (inactive)

**Q.** `COc1cc(C)c(S(=O)(=O)N2CCN(C)CC2)cc1C` was tested. Which Kd did it give?
**A.** > 4 mM (inactive)

**Q.** How did the Kd turn out when `COc1cccc(O)c1O` was run?
**A.** > 4 mM (inactive)

**Q.** `CC(C1OC(C)(C)C(O)C1O)[C@@H]1CC[C@]2(C)C3=CCC4C(C)(C)C(=O)CC[C@]4(C)C3CC[C@@]12C` (some centres not stated) was tested. Which Kd did it give?
**A.** > 4 mM (inactive)

**Q.** With `CS(=O)(=O)N1CCN(c2ccccc2F)CC1` as the molecule, how does the Kd read?
**A.** > 4 mM (inactive)

**Q.** Which Kd does the source give for `C[C@]12CCC(=O)C=C1CCC1C2C(=O)C[C@@]2(C)C1CC[C@]2(O)C(=O)CO` (some centres not stated) here?
**A.** > 4 mM (inactive)

**Q.** With `Cc1sc2nc(SC3CCOC3=O)[nH]c(=O)c2c1C` (configuration not stated) as the molecule, how does the Kd read?
**A.** > 4 mM (inactive)

**Q.** With `O=C(O)c1ccc(CSc2ncn[nH]2)cc1` as the molecule, how does the Kd read?
**A.** > 4 mM (inactive)

**Q.** `CN(Cc1nc2ccccc2n1C)S(C)(=O)=O` was tested. Which Kd did it give?
**A.** > 4 mM (inactive)

**Q.** `CC(=O)N(c1ccccc1)C1C=CS(=O)(=O)C1` (configuration not stated) was tested. Which Kd did it give?
**A.** > 4 mM (inactive)

**Q.** Which Kd does the source give for `C=CC(C1=CC(=O)C=CC1=O)c1ccccc1` (configuration not stated) here?
**A.** > 4 mM (inactive)

**Q.** How did the Kd turn out when `O=C(O)CCn1cncn1` was run?
**A.** > 4 mM (inactive)

**Q.** How did the Kd turn out when `O=C(NCCO)c1cc2ccccc2c(=O)s1` was run?
**A.** > 4 mM (inactive)

**Q.** `Nc1cc(F)cc(F)c1` was tested. Which Kd did it give?
**A.** > 4 mM (inactive)

**Q.** For `Cn1cnc2c(cnn2-c2ccccc2)c1=O`, which Kd is on record?
**A.** > 4 mM (inactive)

**Q.** For `O=c1[nH]c2sc3c(c2c2nncn12)CCCC3`, which Kd is on record?
**A.** > 4 mM (inactive)

**Q.** How did the Kd turn out when `CSc1ccc(/C=c2\sc3ncnn3c2=O)cc1` was run?
**A.** > 4 mM (inactive)

**Q.** With `CC(C)(C)C(=O)Nc1nnc(SCC(N)=O)s1` as the molecule, how does the Kd read?
**A.** > 4 mM (inactive)

**Q.** With `O=C(Nc1ccc2c(c1)OCO2)c1cccs1` as the molecule, how does the Kd read?
**A.** > 4 mM (inactive)

**Q.** Which Kd does the source give for `COC(=O)[C@]1(C)CC[C@]2(C)CC[C@]3(C)C4=CC=C5C(=CC(=O)C(O)=C5C)[C@]4(C)CC[C@@]3(C)[C@@H]2C1` here?
**A.** > 4 mM (inactive)

**Q.** Which Kd does the source give for `COC(=O)C1=CCCN(C)C1` here?
**A.** > 4 mM (inactive)

**Q.** `CC(=O)Nc1ccc(S(=O)(=O)Nc2cc(C)on2)cc1` was tested. Which Kd did it give?
**A.** > 4 mM (inactive)

Source: PubChem BioAssay AID1552 (Sanford-Burnham Center for Chemical Genomics, 2009)
